Where a name gives a salt, the structure may show the parent alone.

Test [1] has as its system Alternaria solani. The experiment in a line: In vivo preventive test on Alternaria (tomatoes) (Example 11). To be noted: rate 0.05%; 3 days after inoculation.
For test [2], the system named is Venturia inaequalis. Kind of test: In vivo preventive test on Venturia (apples), equilibrated mixtures (Example 17). The following applies: 10 days after inoculation.
In a further test the test system is Phakopsora pachyrhizi. The experiment in a line: In vivo preventive test on Phakopsora (soybeans) (Example 12). To be noted: rate 0.05%; 7 days after inoculation.
Another test has as its system Uromyces appendiculatus. Kind of test: In vivo preventive test on Uromyces (beans) (Example 13). The following applies: rate 0.05%; 10 days after inoculation.
Test [3] concerns Phytophthora infestans. The test is classed as in vivo. To be noted: for Percent Control of Tomato Late Blight: 1.0 weight % in 50% ethanol; for fungicidal activity against Tomato Late Blight: 0.25, 0.50 and 1.00 weight %, FIG. 4.
In test [4] the test system is Sphaerotheca fuliginea. Kind of test: In vivo preventive test on Sphaerotheca (cucumbers), equilibrated mixtures (Example 16). To be noted: rate 0.015%; 7 days after inoculation.
Test [5] relates to Alternaria solani. Kind of test: In vivo preventive test on Alternaria (tomatoes), equilibrated mixtures (Example 18). The following applies: 3 days after inoculation.
The test system of test [6] is Botrytis cinerea. Kind of test: In vivo preventive test on Botrytis (beans) (Example 19). The following applies: lesion size 3 days after inoculation.
The next test has as its system Erwinia amylovora. Kind of test: In vivo control of Erwinia amylovora on apple blossoms (Example 30). To be noted: concentration 0.025 % applied to blossoms; after 6-7 days.
Test [7] has as its system Venturia inaequalis. The experiment in a line: In vivo preventive test on Venturia (apples) (Example 10). To be noted: rate 0.05%; 10 days after inoculation.
For test [8], the system named is Sphaerotheca fuliginea. Kind of test: In vivo preventive test on Sphaerotheca (cucumbers) (Example 9). To be noted: rate 0.05%; 7 days after inoculation. The protocol: […] (Bacillus subtilis QST713 fermentation product) and the adjuvants […]-77 (polyalkyleneoxide modified heptamethyltrisiloxane), […]® (synthetic latex), NIMBUS® (paraffin mineral oil), […] (rapeseed oil methyl ester; castor oil ethoxylated) or MERO® (rapeseed oil methyl ester) were diluted in water to the desired concentrations and applied separately and in combination to young cucumber plants. After the spray coating had dried on, the plants were inoculated with an aqueous spore suspension of Sphaerotheca fuliginea. […] (Bacillus subtilis QST713 fermentation product) in combination with […]-77 (polyalkyleneoxide modified heptamethyltrisiloxane), […]® (synthetic latex), NIMBUS® (paraffin mineral oil), […] (rapeseed oil methyl ester; castor oil ethoxylated) or MERO® (rapeseed oil methyl ester) is greater than the calculated activity, i.e., a synergistic effect is present.

Test [9] has as its system Botrytis cinerea. The class given is in vivo. To be noted: rates between 0.0625 and 1.0 weight %; FIG. 2B.
In test [10] the test system is Phytophthora infestans. The class given is in vivo. The following applies: rates between 0.0625 and 2.0 weight %; FIG. 2A, FIG. 3.
Test [11] has as its system Botrytis cinerea. The experiment in a line: In vivo preventive test on Botrytis (beans) (Example 14). To be noted: rate 0.2%; lesion size 3 days after inoculation.

With `CCCCC(CC)COC(=O)CC(C(=O)OCC(CC)CCCC)S(=O)(=O)[O-].[Na+]` (stereo not drawn) [GEROPON ® DOS-PG], the “Efficacy in % Found” value in the test with Alternaria solani [1] is given as 35%; in the test on Venturia inaequalis [2] (rate 0.03%) it was 38%; in the test with Venturia inaequalis [2] (rate 0.06%), 15%; in the test on Venturia inaequalis [2] (rate 0.12%), 28%; in the test with Phakopsora pachyrhizi, 0%; in the test with Uromyces appendiculatus, 0%.

Regarding sorbitan trioleate [SPAN ® 85], the “Percent Control of Tomato Late Blight” value with Phytophthora infestans [3] is on record as 0%.

For the compound `CCCCCCCCCCO[C@@H]1O[C@H](CO)[C@@H](O)[C@H](O)[C@H]1O` [n-decyl-B-D-glucoside], in the test with Phytophthora infestans [3], the “fungicidal activity against Tomato Late Blight” value (shortened to “fungicidal activity”) is recorded as “fungicidal activity was observed” and the “Percent Control of Tomato Late Blight” value is 97%.

As for `CCCCCCCCCO[C@@H]1O[C@H](CO)[C@@H](O)[C@H](O)[C@H]1O` [n-nonyl-B-D-glucoside], in the test on Phytophthora infestans [3], the “fungicidal activity” value was “fungicidal activity was observed” and the “Percent Control of Tomato Late Blight” value amounted to 77%.

For octyl glucose neopentyl glycol, the “fungicidal activity” value in the test on Phytophthora infestans [3] is given as “fungicidal activity was observed”.

In the case of “alkyl polyethylene glycol ether phosphoric acid mono/diester [HORDAPHOS ® 1306]”, the “Efficacy in % Found” value in the test on Sphaerotheca fuliginea [4] was found to be 0%; in the test with Alternaria solani [5] (rate 0.015%), 30%; in the test with Alternaria solani [5] (rate 0.03%), 32%; with Venturia inaequalis [2] (rate 0.06%), 19%; in the test on Botrytis cinerea [6] (rate 0.12%), 0%; in the test with Botrytis cinerea [6] (rate 0.25%), 14%.

For the compound `CCCCCCCCCCCCO[C@@H]1O[C@H](CO)[C@@H](O)[C@H](O)[C@H]1O` [n-dodecyl-B-D-glucoside], in the test with Phytophthora infestans [3], the “fungicidal activity” value was “fungicidal activity was observed” and the “Percent Control of Tomato Late Blight” value is 96%.

As for sucrose monodecanoate, the “Percent Control of Tomato Late Blight” value in the test on Phytophthora infestans [3] came out at 25%.

On to `CCCCCCCCCCCCOS(=O)(=O)[O-].[Na+]` [LOXANOL ® K12P, sodium dodecyl sulfate], for which the “Efficacy in % Found” value in the test with Alternaria solani [5] (rate 0.015%) is listed as 8%; with Alternaria solani [5] (rate 0.03%), 0%; with Alternaria solani [5] (rate 0.06%) it was 23%; in the test on Alternaria solani [5] (rate 0.12%) it was 30%; in the test on Venturia inaequalis [2] (rate 0.03%), 11%; in the test with Venturia inaequalis [2] (rate 0.06%) it was 41%. The “Efficacy in % Found” value came out at 73% in the test with Venturia inaequalis [2] (rate 0.12%) and 0% in the test on Botrytis cinerea [6] (rate 0.12%).

Take “cocoamidopropyl betaine (C8-C18) [GENAGEN ® CAB 818]”: the “Efficacy in % Found” value with Venturia inaequalis [2] (rate 0.015%) was found to be 4%; in the test on Venturia inaequalis [2] (rate 0.03%) it was 68%; in the test with Venturia inaequalis [2] (rate 0.06%), 56%; in the test on Botrytis cinerea [6] (rate 0.06%), 29%; with Botrytis cinerea [6] (rate 0.12%) it was 32%.

As to `[H]/N=C(/N)N[C@H]1[C@H](O)[C@@H](O)[C@H](O[C@@H]2O[C@@H](C)[C@](O)(C=O)[C@H]2O[C@@H]2O[C@@H](CO)[C@H](O)[C@@H](O)[C@@H]2NC)[C@@H](N/C(N)=N\[H])[C@@H]1O` [Streptomycin sulfate], in the test with Erwinia amylovora, the Efficacy in % was 89%.

Consider “polyalkyleneoxide modified heptamethyltrisiloxane [SILWET ® L-77]”, for which the “Efficacy in % Found” value in the test on Alternaria solani [1] came to 16%; in the test with Venturia inaequalis [7] it was 0%; in the test with Sphaerotheca fuliginea [8], 0%; in the test on Phakopsora pachyrhizi, 0%; in the test with Uromyces appendiculatus it was 0%.

Consider sorbitan oleate [SPAN ® 80], for which the “Percent Control of Tomato Late Blight” value with Phytophthora infestans [3] was 50%.

In the case of “C12-C14 lauryl dimethyl betaine [GENAGEN ® KB]”, the figures for the “Efficacy in % Found” value in the test with Venturia inaequalis [2] (rate 0.015%), with Botrytis cinerea [6] (rate 0.06%) and in the test on Botrytis cinerea [6] (rate 0.12%) were 15%, 18% and 39%, respectively.

Turning to sorbitan monolaurate [SPAN ® 20], in the test with Botrytis cinerea [9], the “control of Pepper Grey Mould” value is “increasing control of the plant pathogen was observed as higher rates were applied”. For the same compound, the “control of Tomato Late Blight” value in the test on Phytophthora infestans [10] was “the highest level of control was observed at 1.0 and 2.0 weight %”. Further, the “Percent Control of Tomato Late Blight” value with Phytophthora infestans [3] was found to be 75%.

For the compound “C8-10 alkyl polyglycoside [AGNIQUE ® PG8107G]”, the “Efficacy in % Found” value with Botrytis cinerea [11] came to 0%.

(Values after patent US9745597B2, “Compositions and methods for controlling fungal and bacterial diseases in plants” (priority 2014, dated 2017).)
